# Test results from the supplement of paper PMC10733146.
# Legend:
# Test in all cases: viability relative to DMSO control (fraction); higher = less drug effect (more viable cells)
# Conditions in all cases: 48 h
# [1] = compound: CC(C)(O)CNc1nc(Nc2ccnc(C(F)(F)F)c2)nc(-c2cccc(C(F)(F)F)n2)n1 [AG-221 (Enasidinib)]
# Summary of the method: (§1)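 Using 384-well plates with compounds already plated at five concentrations, one well per concentration, 4 × 10^4 primary mononuclear tumour cells were added per well. Cells were Ficoll-isolated from blood or bone marrow or came from processed lymph node, fresh or cryopreserved. They were kept for 48 h at 37 °C and 5% CO2 in RPMI-1640 supplemented with penicillin/streptomycin, L-glutamine and human serum, and viability was read as CellTiter-Glo luminescence relative to the median of 16 inner DMSO wells.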
# [2] = compound: CC(C)C[C@H](NC(=O)[C@H](Cc1ccccc1)NC(=O)c1cnccn1)B(O)O [Bortezomib]
# Summary of the method: as §1
# [3] = compound: CC(C)N(C[C@H]1O[C@@H](n2cnc3c(N)ncnc32)[C@H](O)[C@@H]1O)[C@H]1C[C@@H](CCc2nc3cc(C(C)(C)C)ccc3[nH]2)C1 [EPZ-5676]
# Summary of the method: as §1
# [4] = compound: CCCS(=O)(=O)Nc1ccc(F)c(C(=O)c2c[nH]c3ncc(-c4ccc(Cl)cc4)cc23)c1F [Vemurafenib]
# Summary of the method: as §1
# [5] = compound: CC[C@@H]1C(=O)N(C)c2cnc(Nc3ccc(C(=O)N[C@H]4CC[C@H](N5CCN(CC6CC6)CC5)CC4)cc3OC)nc2N1C(C)C [BI6727]
# Summary of the method: as §1
# [6] = compound: CN(C)C(=O)c1cc2cnc(Nc3ccc(N4CCNCC4)cn3)nc2n1C1CCCC1 [Ribociclib]
# Summary of the method: as §1
# [7] = compound: COc1c(Cl)cc2c([nH]c3cnccc32)c1NC(=O)c1cccnc1C [MLN-120B]
# Summary of the method: as §1
# [8] = compound: COc1nc(N)nc2c1ncn2[C@@H]1O[C@H](CO)[C@@H](O)[C@@H]1O [Nelarabine]
# Summary of the method: as §1
# [9] = compound: Cc1[nH]c2ccccc2c1CCNCc1ccc(/C=C/C(=O)NO)cc1 [Panobinostat]
# Summary of the method: as §1
# [10] = compound: Cn1c(=O)n(-c2ccc(C(C)(C)C#N)cc2)c2c3cc(-c4cnc5ccccc5c4)ccc3ncc21 [BEZ235]
# Summary of the method: as §1
# [11] = compound: NC(=O)c1ccc(I)c([N+](=O)[O-])c1 [Iniparib]
# Summary of the method: as §1
# [12] = compound: Nc1nc2n[nH]nc2c(=O)[nH]1 [8-Azaguanin]
# Summary of the method: as §1
# [13] = compound: O=C(CCCCCCC(=O)Nc1ccccc1)NO [Vorinostat]
# Summary of the method: as §1
# [14] = compound: OC[C@H]1O[C@@H](n2cnc3c2N=CNC[C@H]3O)C[C@@H]1O [Pentostatin]
# Summary of the method: as §1
# [15] = compound: OCc1ccc(-c2ccc(-c3ccc(CO)s3)o2)s1
# Summary of the method: as §1
test system,measurement,setting,value
primary T-PLL patient cells (S008),viability,[1]; 0.024 µM,0.915
same,viability,[1]; 0.12 µM,0.887
same,viability,[1]; 0.6 µM,1.04
same,viability,[1]; 3 µM,1.01
same,viability,[1]; 15 µM,0.899
same,viability,[2]; 0.008 µM,0.88
same,viability,[2]; 0.04 µM,1.02
same,viability,[2]; 0.2 µM,0.872
same,viability,[2]; 1 µM,0.921
same,viability,[2]; 5 µM,0.879
same,viability,[3]; 0.0032 µM,0.902
same,viability,[3]; 0.016 µM,0.963
same,viability,[3]; 0.08 µM,0.917
same,viability,[3]; 0.4 µM,0.95
same,viability,[3]; 2 µM,1
same,viability,[4]; 0.024 µM,0.958
same,viability,[4]; 0.12 µM,0.983
same,viability,[4]; 0.6 µM,0.975
same,viability,[4]; 3 µM,0.998
same,viability,[4]; 15 µM,1.02
same,viability,[5]; 0.024 µM,0.979
same,viability,[5]; 0.12 µM,0.921
same,viability,[5]; 0.6 µM,0.934
same,viability,[5]; 3 µM,0.899
same,viability,[5]; 15 µM,0.746
same,viability,[6]; 0.024 µM,1.04
same,viability,[6]; 0.12 µM,1.03
same,viability,[6]; 0.6 µM,1.05
same,viability,[6]; 3 µM,1.01
same,viability,[6]; 15 µM,0.902
same,viability,[7]; 0.024 µM,1.03
same,viability,[7]; 0.12 µM,1.01
same,viability,[7]; 0.6 µM,1.03
same,viability,[7]; 3 µM,1
same,viability,[7]; 15 µM,0.963
same,viability,[8]; 0.024 µM,1.03
same,viability,[8]; 0.12 µM,0.99
same,viability,[8]; 0.6 µM,0.942
same,viability,[8]; 3 µM,0.906
same,viability,[8]; 15 µM,0.758
same,viability,[9]; 0.00064 µM,0.965
same,viability,[9]; 0.0032 µM,0.985
same,viability,[9]; 0.016 µM,0.895
same,viability,[9]; 0.08 µM,0.818
same,viability,[9]; 0.4 µM,0.723
same,viability,[10]; 0.024 µM,0.969
same,viability,[10]; 0.12 µM,0.967
same,viability,[10]; 0.6 µM,0.927
same,viability,[10]; 3 µM,0.941
same,viability,[10]; 15 µM,0.308
same,viability,[11]; 0.024 µM,1.11
same,viability,[11]; 0.12 µM,0.994
same,viability,[11]; 0.6 µM,0.915
same,viability,[11]; 3 µM,0.962
same,viability,[11]; 15 µM,0.94
same,viability,[12]; 0.032 µM,0.898
same,viability,[12]; 0.16 µM,0.991
same,viability,[12]; 0.8 µM,0.91
same,viability,[12]; 4 µM,0.858
same,viability,[12]; 20 µM,0.712
same,viability,[13]; 0.016 µM,1.01
same,viability,[13]; 0.08 µM,0.989
same,viability,[13]; 0.4 µM,1.07
same,viability,[13]; 2 µM,0.984
same,viability,[13]; 10 µM,0.851
same,viability,[14]; 0.03 µM,1.04
same,viability,[14]; 0.15 µM,0.989
same,viability,[14]; 0.75 µM,1
same,viability,[14]; 3.75 µM,0.892
same,viability,[14]; 18.76 µM,0.917
same,viability,[15]; 0.024 µM,0.894
same,viability,[15]; 0.12 µM,0.961
same,viability,[15]; 0.6 µM,0.855
same,viability,[15]; 3 µM,0.776
same,viability,[15]; 15 µM,0.246
primary ALL patient cells (S048),viability,[1]; 0.024 µM,0.627
same,viability,[1]; 0.12 µM,0.633
same,viability,[1]; 0.6 µM,0.834
same,viability,[1]; 3 µM,0.854
same,viability,[1]; 15 µM,1.02
same,viability,[2]; 0.008 µM,0.869
same,viability,[2]; 0.04 µM,0.969
same,viability,[2]; 0.2 µM,0.895
same,viability,[2]; 1 µM,0.96
same,viability,[2]; 5 µM,0.887
same,viability,[3]; 0.0032 µM,0.798
same,viability,[3]; 0.016 µM,0.928
same,viability,[3]; 0.08 µM,0.816
same,viability,[3]; 0.4 µM,0.896
same,viability,[3]; 2 µM,0.946
same,viability,[4]; 0.024 µM,0.967
same,viability,[4]; 0.12 µM,1.05
same,viability,[4]; 0.6 µM,0.931
same,viability,[4]; 3 µM,1.04
same,viability,[4]; 15 µM,1.29
same,viability,[5]; 0.024 µM,0.866
same,viability,[5]; 0.12 µM,0.979
same,viability,[5]; 0.6 µM,0.908
same,viability,[5]; 3 µM,0.484
same,viability,[5]; 15 µM,0.138
same,viability,[6]; 0.024 µM,0.682
same,viability,[6]; 0.12 µM,0.676
same,viability,[6]; 0.6 µM,0.692
same,viability,[6]; 3 µM,0.681
same,viability,[6]; 15 µM,0.615
same,viability,[7]; 0.024 µM,0.807
same,viability,[7]; 0.12 µM,0.755
same,viability,[7]; 0.6 µM,0.801
same,viability,[7]; 3 µM,0.716
same,viability,[7]; 15 µM,0.624
same,viability,[8]; 0.024 µM,1.03
same,viability,[8]; 0.12 µM,1.04
same,viability,[8]; 0.6 µM,0.927
same,viability,[8]; 3 µM,0.82
same,viability,[8]; 15 µM,0.587
same,viability,[9]; 0.00064 µM,0.516
same,viability,[9]; 0.0032 µM,0.145
same,viability,[9]; 0.016 µM,0.0582
same,viability,[9]; 0.08 µM,0.074
same,viability,[9]; 0.4 µM,0.0593
same,viability,[10]; 0.024 µM,0.858
same,viability,[10]; 0.12 µM,0.846
same,viability,[10]; 0.6 µM,0.618
same,viability,[10]; 3 µM,0.552
same,viability,[10]; 15 µM,0.269
same,viability,[11]; 0.024 µM,1.09
same,viability,[11]; 0.12 µM,1.07
same,viability,[11]; 0.6 µM,0.988
same,viability,[11]; 3 µM,0.957
same,viability,[11]; 15 µM,0.759
same,viability,[12]; 0.032 µM,0.822
same,viability,[12]; 0.16 µM,0.76
same,viability,[12]; 0.8 µM,0.424
same,viability,[12]; 4 µM,0.377
same,viability,[12]; 20 µM,0.23
same,viability,[13]; 0.016 µM,0.927
same,viability,[13]; 0.08 µM,0.723
same,viability,[13]; 0.4 µM,0.261
same,viability,[13]; 2 µM,0.097
same,viability,[13]; 10 µM,0.0745
same,viability,[14]; 0.03 µM,1.1
same,viability,[14]; 0.15 µM,1
same,viability,[14]; 0.75 µM,1.04
same,viability,[14]; 3.75 µM,0.891
same,viability,[14]; 18.76 µM,0.851
same,viability,[15]; 0.024 µM,0.718
same,viability,[15]; 0.12 µM,0.687
same,viability,[15]; 0.6 µM,0.455
same,viability,[15]; 3 µM,0.188
same,viability,[15]; 15 µM,0.0399
primary CLL patient cells (S031),viability,[1]; 0.024 µM,0.738
same,viability,[1]; 0.12 µM,0.754
same,viability,[1]; 0.6 µM,0.847
same,viability,[1]; 3 µM,0.799
same,viability,[1]; 15 µM,0.786
same,viability,[2]; 0.008 µM,0.967
same,viability,[2]; 0.04 µM,1.03
same,viability,[2]; 0.2 µM,0.938
same,viability,[2]; 1 µM,1.04
same,viability,[2]; 5 µM,0.94
same,viability,[3]; 0.0032 µM,0.887
same,viability,[3]; 0.016 µM,0.952
same,viability,[3]; 0.08 µM,0.895
same,viability,[3]; 0.4 µM,0.881
same,viability,[3]; 2 µM,0.925
same,viability,[4]; 0.024 µM,1.02
same,viability,[4]; 0.12 µM,1
same,viability,[4]; 0.6 µM,1.03
same,viability,[4]; 3 µM,1.05
same,viability,[4]; 15 µM,1.06
same,viability,[5]; 0.024 µM,0.922
same,viability,[5]; 0.12 µM,0.854
same,viability,[5]; 0.6 µM,0.866
same,viability,[5]; 3 µM,0.524
same,viability,[5]; 15 µM,0.178
same,viability,[6]; 0.024 µM,0.92
same,viability,[6]; 0.12 µM,0.861
same,viability,[6]; 0.6 µM,0.828
same,viability,[6]; 3 µM,0.639
same,viability,[6]; 15 µM,0.377
same,viability,[7]; 0.024 µM,0.859
same,viability,[7]; 0.12 µM,0.889
same,viability,[7]; 0.6 µM,0.836
same,viability,[7]; 3 µM,0.813
same,viability,[7]; 15 µM,0.719
same,viability,[8]; 0.024 µM,1.04
same,viability,[8]; 0.12 µM,0.991
same,viability,[8]; 0.6 µM,0.932
same,viability,[8]; 3 µM,0.73
same,viability,[8]; 15 µM,0.484
same,viability,[9]; 0.00064 µM,0.951
same,viability,[9]; 0.0032 µM,0.771
same,viability,[9]; 0.016 µM,0.105
same,viability,[9]; 0.08 µM,0.0334
same,viability,[9]; 0.4 µM,0.0776
same,viability,[10]; 0.024 µM,0.859
same,viability,[10]; 0.12 µM,0.812
same,viability,[10]; 0.6 µM,0.727
same,viability,[10]; 3 µM,0.562
same,viability,[10]; 15 µM,0.132
same,viability,[11]; 0.024 µM,1.09
same,viability,[11]; 0.12 µM,1.07
same,viability,[11]; 0.6 µM,1.14
same,viability,[11]; 3 µM,1.05
same,viability,[11]; 15 µM,0.841
same,viability,[12]; 0.032 µM,0.92
same,viability,[12]; 0.16 µM,0.878
same,viability,[12]; 0.8 µM,0.794
same,viability,[12]; 4 µM,0.483
same,viability,[12]; 20 µM,0.267
same,viability,[13]; 0.016 µM,0.963
same,viability,[13]; 0.08 µM,0.995
same,viability,[13]; 0.4 µM,0.879
same,viability,[13]; 2 µM,0.197
same,viability,[13]; 10 µM,0.0346
same,viability,[14]; 0.03 µM,0.885
same,viability,[14]; 0.15 µM,0.779
same,viability,[14]; 0.75 µM,0.828
same,viability,[14]; 3.75 µM,0.705
same,viability,[14]; 18.76 µM,0.739
same,viability,[15]; 0.024 µM,0.885
same,viability,[15]; 0.12 µM,0.907
same,viability,[15]; 0.6 µM,0.884
same,viability,[15]; 3 µM,0.711
same,viability,[15]; 15 µM,0.106
